Experimental data from US6935334B2, “Enhancing therapeutic effectiveness of nitric oxide inhalation” (The General Hospital Corporation, priority 2000, dated 2005).

What was measured:
[1] = test system: hypoxic pulmonary vasoconstriction (HPV) in mice; test: Redistribution of pulmonary blood flow (QLPA/QPA) after left mainstem bronchus occlusion (LMBO), murine HPV model; assay type: in vivo, mouse
Method: Group 3: endotoxin-treated+L-NIL. SV129/B6F1 wild-type mice (n=5) were injected intraperitoneally with 10 mg/kg E. coli 011B4 endotoxin dissolved in 0.2 mL saline. Three hours after the endotoxin challenge, mice were treated with L-NIL 5 mg/kg intraperitoneally. Studies were performed 22 hours after the endotoxin challenge. In additional SV129/B6F1 mice with (n=5) and without (n=4) a prior challenge of endotoxin (22 hours earlier), the acute response to an intravenous bolus of 5 mg/kg L-NIL administered during LMBO, was studied.
Group 4: prolonged exposure to 4 or 40 ppm NO. Saline-treated SV129 wild-type mice (n=5) and NOS2-deficient mice (n=5) breathed 40 ppm NO in air for 22 hours and were studied 1 hour after discontinuation of NO inhalation. SV129 wild-type mice (n=5) and NOS2-deficient mice (n=5) breathed 40 ppm NO in air for 22 hours after challenge with 10 mg/kg endotoxin intraperitoneally and were studied 1 hour after discontinuation of NO inhalation. Additional NOS2-deficient mice (n=4) breathed 4 ppm of NO in air for 22 hours after challenge with 10 mg/kg endotoxin intraperitoneally and were studied 1 hour after discontinuation of NO inhalation.
Experimental preparation. Mice were anesthetized by intraperitoneal injection of ketamine (0.1 mg/g body weight [bw]). Tracheostomy and arterial catheterization were performed as described previously (Steudel et al., 1997, Circ. Res. 81:34-41). A custom-made endotracheal tube (22G Angiocath; Becton Dickinson Healthcare Systems, Sandy, Utah, USA), combined with a 2 French Fogarty arterial embolization catheter (Baxter Healthcare Corp., Irvine, Calif., USA) was inserted into the trachea, with the balloon tip of the Fogarty catheter initially remaining in the trachea. Volume-controlled ventilation was initiated at a respiratory rate of 110-120 breaths per minute, at FiO2 1.0, a peak inspiratory pressure of 13 cm H2O, and a positive end-expiratory pressure level of 2-3 cm H2O. A right parasternal thoracotomy was performed, and a small-vessel ultrasonic flow probe (1RB; Transonic Instruments, Ithaca, N.Y.) was placed around the right pulmonary artery and fixed in position using a micromanipulator (X-tra Hand; TechniTool, Plymouth, Pa.). A 4-0 silk suture was positioned around the left main pulmonary artery to allow transient vascular occlusion. A pulmonary artery catheter (PE10) was inserted into the main pulmonary artery by direct puncture. In other experiments, a lower thoracic aortic flow probe was placed as reported previously (Steudel et al., supra).
Blood flow and pressure measurements. Mean systemic arterial pressure (PSA), mean pulmonary artery pressure (PPA), and in some studies PLA, were continuously monitored using biomedical amplifiers (Hewlett Packard 8805C, Palo Alto, Calif.; Siemens Sirecust 960, Danvers, Mass.). Mean lower thoracic aortic flow (QLTAF) and right pulmonary artery flow (QRPA) were measured with small vessel flow probes connected to a flowmeter (T106; Transonic Instruments). In some experiments, left ventricular end-diastolic pressure was measured with a 1.4 Fr. Millar catheter. The catheter was advanced through the right carotid artery into the left ventricle. […] All monitoring equipment was calibrated before each experiment.
Differential measurement of left and right pulmonary artery flow. To assess the contribution of QRPA and left pulmonary artery flow (QLPA) to total pulmonary artery flow (QPA), transient occlusion (90 seconds) of the left pulmonary artery (QLPA) was performed. QRPA during acute left pulmonary artery occlusion was considered to be QPA (i.e., cardiac output) and correlated closely (r2=0.88; y=0.95x+0.38; n=9) with QLTAF. QLPA was calculated as the difference between QRPA during left pulmonary artery occlusion (QPA) and QRPA with a patent left pulmonary artery (QLPA=QPA−QRPA). Absolute values of respective flows were recorded, and the fractional distribution of flow to the right and left lungs (QRPA/QPA and QLPA/QPA) was calculated. […]

[2] = Lung wet/dry ratio (Example 2); assay type: in vivo, mouse; conditions: breathing 4 or 40 ppm NO for 22 hours
Method: Lung wet/dry ratio. After euthanasia with pentobarbital (0.1 mg/g intraperitoneally), both lungs, excluding hilar structures, were excised, blotted, and immediately weighed. Thereafter, the tissue was dried in a microwave oven for 60 minutes, as described previously (20), and reweighed. Lung wet/dry ratio was calculated.

[N]=O [NO, Nitric oxide]
reduction of QLPA/QPA after LMBO ([1]; endotoxin-treated NOS2-deficient mice after prolonged inhalation of 40 ppm NO for 22 hours): 20±7% | reduction of QLPA/QPA after LMBO ([1]; endotoxin-treated NOS2-deficient mice breathing 4 ppm NO for 22 hours): 62±2% | reduction of QLPA/QPA after LMBO ([1]; endotoxin-treated wild-type mice breathing 40 ppm NO for 22 hours): 19±10% | reduction of QLPA/QPA after LMBO ([1]; saline-treated NOS2-deficient mice after breathing 40 ppm NO for 22 hours, measured 1 hour later): 50±11% | reduction of QLPA/QPA after LMBO ([1]; saline-treated wild-type mice after breathing 40 ppm NO for 22 hours, measured 1 hour later): 51±10% | wet/dry lung weight ratios [2]: did not alter
